Reference: the NIST ThermoML archive (doi:10.1021/je049610v)
Numbers after ± are expanded uncertainties.

Tests used:
[1] = xn = mol fraction of the nth substance listed; conditions: 101 kPa, Liquid
[2] = refractive index (Na D-line) (dimensionless); xn = mol fraction of the nth substance listed; conditions: 101 kPa, Liquid

ClC(Cl)C(Cl)Cl [1,1,2,2-tetrachloroethane] + COc1ccccc1
mass density ([1]; 298.15 K, x2 = 0): 1587.8 ± 3.5 kg/m3 | speed of sound ([1]; 298.15 K, x2 = 0): 1153 ± 7 m/s | viscosity ([1]; 298.15 K, x2 = 0): 1.591 ± 0.049 mPa·s | mass density ([1]; 298.15 K, x2 = 0.1003): 1526.3 ± 3.4 kg/m3 | speed of sound ([1]; 298.15 K, x2 = 0.1003): 1172 ± 7 m/s | viscosity ([1]; 298.15 K, x2 = 0.1003): 1.555 ± 0.048 mPa·s | mass density ([1]; 298.15 K, x2 = 0.2021): 1464.3 ± 3.2 kg/m3 | speed of sound ([1]; 298.15 K, x2 = 0.2021): 1193 ± 7 m/s | viscosity ([1]; 298.15 K, x2 = 0.2021): 1.518 ± 0.047 mPa·s | mass density ([1]; 298.15 K, x2 = 0.303): 1403.1 ± 3 kg/m3 | speed of sound ([1]; 298.15 K, x2 = 0.303): 1214 ± 7 m/s | viscosity ([1]; 298.15 K, x2 = 0.303): 1.47 ± 0.045 mPa·s | mass density ([1]; 298.15 K, x2 = 0.3939): 1348.3 ± 2.9 kg/m3 | speed of sound ([1]; 298.15 K, x2 = 0.3939): 1235 ± 7 m/s | viscosity ([1]; 298.15 K, x2 = 0.3939): 1.419 ± 0.044 mPa·s | mass density ([1]; 298.15 K, x2 = 0.4986): 1285.5 ± 2.8 kg/m3 | speed of sound ([1]; 298.15 K, x2 = 0.4986): 1262 ± 7 m/s | viscosity ([1]; 298.15 K, x2 = 0.4986): 1.355 ± 0.042 mPa·s | mass density ([1]; 298.15 K, x2 = 0.5975): 1226.5 ± 2.6 kg/m3 | speed of sound ([1]; 298.15 K, x2 = 0.5975): 1289 ± 7 m/s | viscosity ([1]; 298.15 K, x2 = 0.5975): 1.292 ± 0.04 mPa·s | mass density ([1]; 298.15 K, x2 = 0.6972): 1167.2 ± 2.5 kg/m3 | speed of sound ([1]; 298.15 K, x2 = 0.6972): 1317 ± 7 m/s | viscosity ([1]; 298.15 K, x2 = 0.6972): 1.224 ± 0.039 mPa·s | mass density ([1]; 298.15 K, x2 = 0.7983): 1107.6 ± 2.3 kg/m3 | speed of sound ([1]; 298.15 K, x2 = 0.7983): 1347 ± 7 m/s | viscosity ([1]; 298.15 K, x2 = 0.7983): 1.149 ± 0.036 mPa·s | mass density ([1]; 298.15 K, x2 = 0.9012): 1047 ± 2.2 kg/m3 | speed of sound ([1]; 298.15 K, x2 = 0.9012): 1379 ± 8 m/s | viscosity ([1]; 298.15 K, x2 = 0.9012): 1.074 ± 0.034 mPa·s | mass density ([1]; 303.15 K, x2 = 0): 1580.6 ± 3.6 kg/m3 | viscosity ([1]; 303.15 K, x2 = 0): 1.471 ± 0.045 mPa·s | mass density ([1]; 303.15 K, x2 = 0.1003): 1519.4 ± 3.4 kg/m3 | viscosity ([1]; 303.15 K, x2 = 0.1003): 1.439 ± 0.045 mPa·s | mass density ([1]; 303.15 K, x2 = 0.2021): 1457.7 ± 3.3 kg/m3 | viscosity ([1]; 303.15 K, x2 = 0.2021): 1.404 ± 0.044 mPa·s | mass density ([1]; 303.15 K, x2 = 0.303): 1396.9 ± 3.1 kg/m3 | viscosity ([1]; 303.15 K, x2 = 0.303): 1.362 ± 0.042 mPa·s | mass density ([1]; 303.15 K, x2 = 0.3939): 1342.2 ± 3 kg/m3 | viscosity ([1]; 303.15 K, x2 = 0.3939): 1.315 ± 0.041 mPa·s | mass density ([1]; 303.15 K, x2 = 0.4986): 1279.9 ± 2.8 kg/m3 | viscosity ([1]; 303.15 K, x2 = 0.4986): 1.255 ± 0.039 mPa·s | mass density ([1]; 303.15 K, x2 = 0.5975): 1221.1 ± 2.7 kg/m3 | viscosity ([1]; 303.15 K, x2 = 0.5975): 1.196 ± 0.038 mPa·s | mass density ([1]; 303.15 K, x2 = 0.6972): 1162.1 ± 2.5 kg/m3 | viscosity ([1]; 303.15 K, x2 = 0.6972): 1.131 ± 0.036 mPa·s | mass density ([1]; 303.15 K, x2 = 0.7983): 1102.7 ± 2.4 kg/m3 | viscosity ([1]; 303.15 K, x2 = 0.7983): 1.064 ± 0.034 mPa·s | mass density ([1]; 303.15 K, x2 = 0.9012): 1042.8 ± 2.2 kg/m3 | viscosity ([1]; 303.15 K, x2 = 0.9012): 0.994 ± 0.032 mPa·s | mass density ([1]; 308.15 K, x2 = 0): 1573.3 ± 3.6 kg/m3 | viscosity ([1]; 308.15 K, x2 = 0): 1.361 ± 0.042 mPa·s | mass density ([1]; 308.15 K, x2 = 0.1003): 1512.6 ± 3.5 kg/m3 | viscosity ([1]; 308.15 K, x2 = 0.1003): 1.323 ± 0.041 mPa·s | mass density ([1]; 308.15 K, x2 = 0.2021): 1451.2 ± 3.3 kg/m3 | viscosity ([1]; 308.15 K, x2 = 0.2021): 1.29 ± 0.04 mPa·s | mass density ([1]; 308.15 K, x2 = 0.303): 1390.6 ± 3.2 kg/m3 | viscosity ([1]; 308.15 K, x2 = 0.303): 1.253 ± 0.039 mPa·s | mass density ([1]; 308.15 K, x2 = 0.3939): 1336.2 ± 3.1 kg/m3 | viscosity ([1]; 308.15 K, x2 = 0.3939): 1.21 ± 0.038 mPa·s | mass density ([1]; 308.15 K, x2 = 0.4986): 1274 ± 2.9 kg/m3 | viscosity ([1]; 308.15 K, x2 = 0.4986): 1.155 ± 0.037 mPa·s | mass density ([1]; 308.15 K, x2 = 0.5975): 1215.6 ± 2.8 kg/m3 | viscosity ([1]; 308.15 K, x2 = 0.5975): 1.1 ± 0.035 mPa·s | mass density ([1]; 308.15 K, x2 = 0.6972): 1156.9 ± 2.6 kg/m3 | viscosity ([1]; 308.15 K, x2 = 0.6972): 1.038 ± 0.033 mPa·s | mass density ([1]; 308.15 K, x2 = 0.7983): 1097.7 ± 2.5 kg/m3 | viscosity ([1]; 308.15 K, x2 = 0.7983): 0.979 ± 0.032 mPa·s | mass density ([1]; 308.15 K, x2 = 0.9012): 1037.4 ± 2.3 kg/m3 | viscosity ([1]; 308.15 K, x2 = 0.9012): 0.914 ± 0.03 mPa·s | refractive index ([2]; 298.15 K, x2 = 0): 1.4922 ± 0.0024 | refractive index ([2]; 298.15 K, x2 = 0.1003): 1.4943 ± 0.0024 | refractive index ([2]; 298.15 K, x2 = 0.2021): 1.4966 ± 0.0024 | refractive index ([2]; 298.15 K, x2 = 0.303): 1.4989 ± 0.0024 | refractive index ([2]; 298.15 K, x2 = 0.3939): 1.5009 ± 0.0024 | refractive index ([2]; 298.15 K, x2 = 0.4986): 1.5032 ± 0.0024 | refractive index ([2]; 298.15 K, x2 = 0.5975): 1.5055 ± 0.0024 | refractive index ([2]; 298.15 K, x2 = 0.6972): 1.508 ± 0.0024 | refractive index ([2]; 298.15 K, x2 = 0.7983): 1.5105 ± 0.0024 | refractive index ([2]; 298.15 K, x2 = 0.9012): 1.5129 ± 0.0024 | refractive index ([2]; 303.15 K, x2 = 0): 1.4894 ± 0.0024 | refractive index ([2]; 303.15 K, x2 = 0.1003): 1.4915 ± 0.0024 | refractive index ([2]; 303.15 K, x2 = 0.2021): 1.4937 ± 0.0024 | refractive index ([2]; 303.15 K, x2 = 0.303): 1.496 ± 0.0024 | refractive index ([2]; 303.15 K, x2 = 0.3939): 1.498 ± 0.0024 | refractive index ([2]; 303.15 K, x2 = 0.4986): 1.5005 ± 0.0024 | refractive index ([2]; 303.15 K, x2 = 0.5975): 1.5028 ± 0.0024 | refractive index ([2]; 303.15 K, x2 = 0.6972): 1.5052 ± 0.0024 | refractive index ([2]; 303.15 K, x2 = 0.7983): 1.5076 ± 0.0024 | refractive index ([2]; 303.15 K, x2 = 0.9012): 1.51 ± 0.0024 | refractive index ([2]; 308.15 K, x2 = 0): 1.4865 ± 0.0024 | refractive index ([2]; 308.15 K, x2 = 0.1003): 1.4887 ± 0.0024 | refractive index ([2]; 308.15 K, x2 = 0.2021): 1.4909 ± 0.0024 | refractive index ([2]; 308.15 K, x2 = 0.303): 1.4931 ± 0.0024 | refractive index ([2]; 308.15 K, x2 = 0.3939): 1.4952 ± 0.0024 | refractive index ([2]; 308.15 K, x2 = 0.4986): 1.4977 ± 0.0024 | refractive index ([2]; 308.15 K, x2 = 0.5975): 1.5 ± 0.0024 | refractive index ([2]; 308.15 K, x2 = 0.6972): 1.5023 ± 0.0024 | refractive index ([2]; 308.15 K, x2 = 0.7983): 1.505 ± 0.0024 | refractive index ([2]; 308.15 K, x2 = 0.9012): 1.5072 ± 0.0024

C1COCCO1 [1,4-dioxane] + COc1ccccc1
mass density ([1]; 298.15 K, x2 = 0): 1028.3 ± 2.1 kg/m3 | speed of sound ([1]; 298.15 K, x2 = 0): 1345 ± 7 m/s | viscosity ([1]; 298.15 K, x2 = 0): 1.415 ± 0.044 mPa·s | mass density ([1]; 303.15 K, x2 = 0): 1023.1 ± 2.2 kg/m3 | viscosity ([1]; 303.15 K, x2 = 0): 1.171 ± 0.1 mPa·s | mass density ([1]; 308.15 K, x2 = 0): 1017.8 ± 2.2 kg/m3 | viscosity ([1]; 308.15 K, x2 = 0): 1.068 ± 0.034 mPa·s | refractive index ([2]; 298.15 K, x2 = 0): 1.4181 ± 0.0024 | refractive index ([2]; 303.15 K, x2 = 0): 1.4176 ± 0.0024 | refractive index ([2]; 308.15 K, x2 = 0): 1.4141 ± 0.0024
